The source of these data is ChEMBL document CHEMBL1201862, “PubChem BioAssay data set” (2004).

What all share (test): NCI-60 cell line screen, 48 h
Assay [1] has as its system MDA-MB-435.
Assay [2] deals with MOLT-4.
For assay [3], the system named is EKVX.
In assay [4] the test system is MCF7.
Assay [5] concerns HCT-116.
The test system of assay [6] is IGROV-1.
The subject of assay [7] is UACC-62.
Assay [8] has as its system T47D.
Assay [9] deals with MDA-MB-231.
Assay [10] deals with SF-539.
For assay [11], the system named is HCC 2998.
The subject of assay [12] is HCT-15.
The test system of assay [13] is UACC-257.
Assay [14] concerns OVCAR-4.
Assay [15] concerns OVCAR-8.
For assay [16], the system named is SNB-75.
For assay [17], the system named is NCI-H226.
In assay [18] the test system is K562.

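Tested at 5 concentrations; 48 h exposure; 96-well plates; endpoints linearly interpolated, else capped at highest concentration. GI50 is the concentration that inhibits growth by half.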 The source made the active and inactive calls. No stated cut-off is given here; in the data, active = GI50 up to about 1.1 µM and inactive = higher.

Consider `CCCCCC(C)C[C@H]1CO[C@H](c2ccc[nH]2)N[C@H]1C(=O)OC` (some centres not stated), for which the GI50 in [1], in assay [2], in [3], in assay [4], in assay [5] and in assay [6] was > 100 µM (inactive) each time. The GI50 in assay [7] is > 100 µM (inactive); in assay [8], > 100 µM (inactive); in assay [9], > 100 µM (inactive); in assay [10], > 100 µM (inactive); in assay [11], > 100 µM (inactive); in assay [12], above 100 µM. Besides, the GI50 in [13], in [14] and in assay [15] was > 100 µM (inactive) each time.
For `Cc1nnc(-n2c(O)cc(=O)n(-c3ccccc3)c2=S)nc1/C=C/c1ccc(N(C)C)cc1`, the GI50 in assay [1] was 5.62 µM (inactive); in [2] it was 15.6 µM (inactive); in [3], 9.23 µM (inactive); in assay [4] it was 3.42 µM (inactive); in assay [5], 11.9 µM (inactive); in assay [6], 5.98 µM (inactive). Also, the GI50 in [16] is 4.38 µM (inactive); in assay [17] it was 32.3 µM (inactive); in assay [7] it was 6.53 µM (inactive); in assay [8], 6.62 µM (inactive); in [9] it was > 35.6 µM (inactive); in assay [11], 6.49 µM (inactive). The GI50 in assay [18] is 5.81 µM (inactive); in assay [12], 4.88 µM; in assay [13], 15.5 µM (inactive); in assay [14], 11.4 µM (inactive); in [15] it was 9.59 µM (inactive).
Regarding `COC1C(=O)N(SC)C1c1ccccc1Cl` (configuration not stated), the GI50 in assay [1] is 21.3 µM (inactive); in [2], 9.62 µM (inactive); in [3] it was 24.4 µM (inactive); in assay [4] it was 19.7 µM (inactive); in assay [5], 11.3 µM (inactive); in assay [6] it was 18.7 µM (inactive). The GI50 in [7] was 54.8 µM (inactive); in assay [8], 27.4 µM (inactive); in [9] it was 35.6 µM (inactive); in [10], 19.6 µM (inactive); in assay [11], 14.7 µM (inactive); in [18], 25.9 µM (inactive). Also, the GI50 is 22.3 µM in assay [12], > 100 µM (inactive) in assay [13], 16.7 µM (inactive) in assay [14] and 19.6 µM (inactive) in assay [15].
For the molecule `COC(=O)C1=C2SCc3cccc(c3)CSC3=C(C(=O)OC)SC(=C(S2)S1)S3`, the GI50 in assay [1], in [2], in assay [4], in [5], in [16] and in assay [17] was > 100 µM (inactive) each time. In addition, the GI50 was > 100 µM (inactive) in assay [7]; > 100 µM (inactive) in [8]; 24.7 µM (inactive) in assay [9]; > 100 µM (inactive) in assay [11]; > 100 µM (inactive) in [18]; > 100 µM (inactive) in [13]. Moreover, the GI50 in assay [14] is > 100 µM (inactive).
For the molecule `NC1=NC(c2ccc(Cl)cc2)N(c2ccc(S(=O)(=O)Nc3ncccn3)cc2)C(N)=N1` (configuration not stated), the GI50 in assay [1] is > 100 µM (inactive); in assay [2], 54.8 µM (inactive); in assay [3] it was > 100 µM (inactive); in [4], > 100 µM (inactive); in assay [5] it was > 100 µM (inactive); in assay [6], > 100 µM (inactive). The GI50 in [16], in [17], in assay [7], in assay [8], in assay [9] and in assay [10] was > 100 µM (inactive) each time. For the same molecule, the GI50 was > 100 µM (inactive) in assay [18]; above 100 µM in [12]; > 100 µM (inactive) in [13]; > 100 µM (inactive) in assay [14]; > 100 µM (inactive) in [15].
For the molecule `Cc1ccc2[nH]c(=O)c(-c3cnc(O)nn3)c(O)c2c1`, the GI50 in assay [1] is 60.3 µM (inactive); in [2], 5.06 µM (inactive); in assay [3] it was 3.4 µM (inactive); in [4], 36.9 µM (inactive); in [5] it was 32.7 µM (inactive); in [6], > 100 µM (inactive). Besides, the GI50 in [16] is > 100 µM (inactive); in [17], > 100 µM (inactive); in assay [7] it was 26.4 µM (inactive); in assay [8], 53.2 µM (inactive); in [9], > 100 µM (inactive); in assay [10], > 100 µM (inactive). The GI50 in assay [18] was 1.8 µM (inactive); in [12], above 100 µM; in assay [13] it was 57.4 µM (inactive); in assay [14], 17.8 µM (inactive); in [15], > 100 µM (inactive).
Take `NS(=O)(=O)c1ccc(/N=N/c2ccc(O)c(C(=O)O)c2)cc1` [SALAZOSULFAMIDE]: the GI50 in assay [1], in assay [2], in [3], in [4], in assay [5] and in assay [6] was > 100 µM (inactive) throughout. In addition, the GI50 was 69 µM (inactive) in [16]; > 100 µM (inactive) in [17]; > 100 µM (inactive) in [7]; > 100 µM (inactive) in [8]; > 100 µM (inactive) in [9]; > 100 µM (inactive) in [11]. The GI50 was > 100 µM (inactive) in assay [18]; above 100 µM in [12]; > 100 µM (inactive) in assay [13]; > 100 µM (inactive) in assay [14]; > 100 µM (inactive) in assay [15].
Turning to `C=C(C)[C@H]1C2=CC(C(=O)OC)=C(C[C@H](C(=C)C)[C@@H](O)[C@@H](O)C3=C[C@H]1OC3=O)O2`, the GI50 in assay [1] was > 100 µM (inactive); in assay [2] it was 97.5 µM (inactive); in assay [3], > 100 µM (inactive); in assay [4], > 100 µM (inactive); in [5], > 100 µM (inactive); in [6] it was 80.2 µM (inactive). Further, the GI50 in [16] is 37.7 µM (inactive); in assay [17] it was > 100 µM (inactive); in [7], > 100 µM (inactive); in [8], > 100 µM (inactive); in [9] it was > 100 µM (inactive); in assay [10] it was > 100 µM (inactive). The GI50 is > 100 µM (inactive) in assay [18]; 59.8 µM in [12]; > 100 µM (inactive) in [13]; > 100 µM (inactive) in assay [14]; > 100 µM (inactive) in assay [15].
For the molecule `COc1cc(/C=C/C=C2\CCC/C(=C\C=C\c3ccc(O)c(OC)c3)C2=O)ccc1O`, the GI50 in assay [1] is 9.57 µM (inactive); in assay [2], 1.01 µM (active); in assay [3], 7.36 µM (inactive); in assay [4] it was 5.24 µM (inactive); in [5], 10.5 µM (inactive); in assay [6], 6.7 µM (inactive). Further, the GI50 in assay [16] was 26.7 µM (inactive); in assay [7] it was 7.55 µM (inactive); in assay [8], 8.32 µM (inactive); in assay [9] it was 39.1 µM (inactive); in assay [10], 17.5 µM (inactive); in assay [11], 13.2 µM (inactive). In addition, the GI50 in [18] is 3.06 µM (inactive); in assay [12], 13.6 µM; in [13], 12.1 µM (inactive); in assay [14], 6.27 µM (inactive); in [15], 12.6 µM (inactive).
Consider `O=C(OCCC12CC3CC(CC(C3)C1)C2)c1ccc(NCc2cc(O)ccc2O)cc1`, for which the GI50 in [1] is 1.26 µM (inactive); in assay [2], 0.262 µM (active); in [3], 1.7 µM (inactive); in assay [4], 0.557 µM (active); in assay [5], 1.26 µM (inactive); in [6], 0.0547 µM (active). Further, the GI50 was 1.38 µM (inactive) in [16]; 2.92 µM (inactive) in [17]; 1.61 µM (inactive) in [7]; 0.214 µM (active) in assay [8]; 1.88 µM (inactive) in assay [9]; 0.652 µM (active) in [10]. Also, the GI50 in [18] is 1.66 µM (inactive); in [12], 0.611 µM; in assay [13] it was 0.604 µM (active); in assay [14], 0.904 µM (active).
Consider `Cc1oc2c(cc(O)c3ccccc32)c2cccc1-2`, for which the GI50 in [1], in assay [2], in assay [3], in assay [4], in assay [5] and in assay [16] was > 100 µM (inactive) throughout. The GI50 is > 100 µM (inactive) in [8]; 14.3 µM (inactive) in assay [9]; > 100 µM (inactive) in [10]; > 100 µM (inactive) in [11]; 99.5 µM in [12]; > 100 µM (inactive) in assay [13]. Also, the GI50 in [15] is > 100 µM (inactive).
For the molecule `COC(=O)/C=C1\C(=O)Nc2ccc(Br)cc21`, the GI50 in assay [1] was 1.87 µM (inactive); in [2] it was 0.962 µM (active); in assay [3], 1.77 µM (inactive); in assay [4] it was 1.46 µM (inactive); in assay [5], 1.36 µM (inactive); in assay [6], 1.75 µM (inactive). In addition, the GI50 in assay [16] was 1.99 µM (inactive); in assay [17], 1.72 µM (inactive); in assay [7], 1.56 µM (inactive); in [8], 2.16 µM (inactive); in assay [9], 2.51 µM (inactive); in [11], 2.22 µM (inactive). In addition, the GI50 in assay [18] is 1.77 µM (inactive); in [12], 1.16 µM; in [13], 1.37 µM (inactive); in [14], 2.23 µM (inactive); in [15], 2.14 µM (inactive).
